This series is described as follows: Particle size distribution of particles (laser diffraction, volume distribution). Type of series: physicochemical. Conditions: micronized active ingredient before coating. From the text:
When used herein, the term “d90 particle size” is intended to mean that the particle size distribution is so that at least 90% of the particles have a particle diameter of less than the specified value, calculated from the volume distribution curve under the presumption of spherical particles. In a similar way, the term “d50 particle size” is intended to mean that the particle size distribution is so that at least 50% of the particles have a particle diameter of less than the specified value, calculated from the volume distribution curve under the presumption of spherical particles.
Therefore, it is important to note that whenever the terms “particle size”, “particle size distribution”, “particle diameter”, “d90”, “d50”, etc., are used herein it should be understood that the specific values or ranges used in connection therewith are always meant to be determined from the volume distribution curve under the presumption of spherical particles. The particle size distribution may be determined by various techniques, e.g. laser diffraction, and will be known to the person skilled in the art. […] The particle size distribution of the particles, when incorporated in a wafer, may be determined by dissolving the film forming matrix, separation of the protected particles, and drying the protected particles. […]

Turning to `C[C@]12CCC(=O)C=C1[C@@H]1C[C@@H]1[C@H]1[C@@H]3[C@@H]4C[C@@H]4[C@@]4(CCC(=O)O4)[C@@]3(C)CC[C@@H]12` [drospirenone], the d50 was determined as 2.2 μm and the d90 was 4.8 μm.
